Results from publication PMC4790291, “Short, Synthetic Cationic Peptides Have Antibacterial Activity against Mycobacterium smegmatis by Forming Pores in Membrane and Synergizing with Antibiotics” (Antibiotics, 2015).
Converted amounts (≈) assume the structure as drawn. “And” between values parts separate entries of the source, which are not always exact repeats. Equal entries are not always repeated. Where two headings read alike, the source gives them in different places. Positions of bridges follow the written chain, without caps; N, C: chain ends. Non-standard residues stand in square brackets, D forms with d. Residues, ends and D or L forms follow the SMILES beside them. No end group written: not given here. *: point of attachment. X1 = CC[C@H](C)CCCCC(=O)*; Dab = NCC[C@H](N)C(=O)O

Tests used:
M. smegmatis mc^2155 [1] = system: M. smegmatis mc^2155
Procedure: (§1) The antimicrobial activity for each peptide was determined through 3 h incubation time. The appropriate dilutions of each well were plated in triplicate and the extent of killing for the peptides were determined.
(§2) Briefly, 1 × 10^5 CFU per well of bacteria were incubated with different peptide concentrations in a 50 μL solution of Buffer Q consisting of 10 mM potassium phosphate buffer at pH 7.2 and 0.1% MB7H9 (3 h, 37 °C). Serial dilutions were then prepared in Buffer Q and plated in triplicate on MB7H9 plates, which were incubated (37 °C, 24 to 48 h) and CFUs counted. […] EC50 values were determined by plotting percent killing as a function of the log of peptide concentration (log μg/mL), and fitting the data from the antimicrobial assays to a standard sigmoidal dose-response curve, using Equation (1), where Y corresponds to bacterial killing (%) at a given peptide concentration (μg/mL), with X being the logarithm of that concentration (log μg/mL). In the equation, “Top” and “Bottom” refer to the upper and lower boundaries, and were constrained to values <100% and >0%, respectively.

M. smegmatis [2] = conditions: for MIC: 48 h
M. smegmatis mc^2155 [3] = assay: microbe, parasite or virus in culture; conditions: Mycolicibacterium smegmatis, MC^2155, 3 h
Procedure: as §1, §2

M. tuberculosis [4] = conditions: 100 μg/mL of peptide; cited from earlier work
M. smegmatis [5] = system: M. smegmatis; set-up: method as in earlier work; conditions: 10 μg/mL of LL-37; ref 9 (Sonawane et al.); cited from earlier work
M. smegmatis [6] = conditions: for MIC Alone / MIC Combined (antibiotic): checkerboard; for MIC Alone: 37 °C, about 10^5 CFU/mL, single agent; for FIC (peptide) / FIC (antibiotic): MIC in combination/MIC alone; for FICI: FICI ≤ 0.5 synergy, 0.5-1.0 additive, 1.0-4.0 indifferent, > 4.0 antagonism
M. smegmatis membrane = assay: Bacterial cytoplasmic membrane depolarization assay, DiSC3(5); assay type: cell-based, Mycobacterium smegmatis
Procedure: Membrane depolarization assay was studied using DiSC3(5) as previously reported. Depolarization of a membrane can be visualized by a […] in fluorescence. After interaction with intact cytoplasmic membrane, the fluorescent probe DiSC3(5) was quenched. After incubation with the antimicrobial peptide, the membrane potential was lost, and the probe was released to the medium, ensuing in an increase of fluorescence that can be quantified and monitored as a function of time. In brief, enumerated frozen bacteria were pelleted and washed twice in phosphate buffer (pH 7.2) and then resuspended to 4 × 10^7 CFU/mL in phosphate buffer containing 50 μg/mL DiSC3(5). Then, 100 uLs of this suspension was added to wells of a black 96-well plate. The plate was incubated in a TECAN Safire2 spectrofluorometer and monitored until fluorescence leveled off. Next, 100 μLs of various concentrations of peptide in phosphate buffer (pH 7.2) were added to each well. Bacteria without peptide and peptide without bacteria served as controls. The plate was immediately returned to the spectrofluorometer. Readings were taken every 15 s for 5 min (excitation = 622 nm; emission = 670 nm).
Figure 1 Membrane depolarization activity by LL-37, mCRAMP, hBD3-Pep4, ATRA-1A, ATRA-2, and NA-CATH. Depolarization determined using DiSC3(5) (50 μg/mL) at multiple concentrations of peptide (50, 25, 5, and 0.5 μg/mL). […]

M. smegmatis [7] = assay: Ethidium bromide uptake assay (membrane permeation); conditions: 50 μg/mL peptide, 10 μM ethidium bromide, examined at 20 min, 37 °C, n = 3, Figure 2
Procedure: Bacterial cytoplasmic membrane permeation is monitored by using the ethidium bromide uptake assay. […] M. smegmatis is grown until log phase in MB7H9 (Difco) broth with 2% (w/v) glucose as the carbon source, and 0.05% (v/v) Tween 80 in a shaking incubator (37 °C). Bacteria is centrifuged, washed with PBS, and then adjusted to an OD 600 nm of 0.1 Phosphate Buffer. 180 μL of bacteria is added to 10 μL ethidium bromide (10 μM final concentration) and 10 μL peptide in various concentrations, the experiment was performed in triplicate. The plate is read in a Tecan Safire^2 spectrofluorometer every 2 min for 30 min at 37 °C: (excitation = 540 nm, emission = 590 nm). Peak RFU at 20 min is used in Figure 2, and values were analyzed against wells with no peptide treatment with a Student’s t-test.
Permeablization of membrane after 20 min was compared. Experiments were performed in triplicate (n = 3).

M. tuberculosis [8] = conditions: LL-37 ref 30; hBD3 ref 33; cited from earlier work
Procedure: While the EC50 experiments are typically carried out in 10 mM phosphate buffer with pH 7.2 for 3 h, the Minimal Inhibitory Concentration (MIC) is determined in bacterial broth (resulting in a higher salt concentration) with a 48 h incubation. We confirmed the sensitivity of M. smegmatis to common antibiotics such as polymyxin B, rifampicin, and fosmidomycin [35, 36, 37]. […] The reported MIC of full-length hBD ...

M. smegmatis [9] = assay: microbe, parasite or virus in culture; conditions: Mycolicibacterium smegmatis, 48 h
M. smegmatis [10] = assay: microbe, parasite or virus in culture; conditions: Mycolicibacterium smegmatis, 72 h, read-out: MIC Alone
[11] = cited from earlier work
[12] = from EC50 in μM, above 1 = more potent than rifampicin
[13] = from MIC in μM, above 1 = less potent than rifampicin
[14] = same assay as μg/mL value, 3 h, 10 mM phosphate buffer
[15] = in combination with polymyxin B
[16] = peptide combined with polymyxin B

## O=CN(O)CCCP(=O)(O)O [Fosmidomycin]
M. smegmatis mc^2155 [1]; [12]
  Fold vs. Rifampicin: 0.20
M. smegmatis [2]; [13]
  Fold vs. Rifampicin (μM): 0.39
M. smegmatis mc^2155 [3]
  EC50: 780 nM
M. smegmatis mc^2155 [3]; pH 7.2
  EC50: 0.14 µg/mL

## CC[C@H](C)[C@H](NC(=O)[C@H](CCCCN)NC(=O)[C@H](CCC(=O)O)NC(=O)[C@H](CCCCN)NC(=O)[C@H](CO)NC(=O)[C@H](CCCCN)NC(=O)[C@H](CCCNC(=N)N)NC(=O)[C@H](Cc1ccccc1)NC(=O)[C@H](Cc1ccccc1)NC(=O)[C@H](CC(=O)O)NC(=O)CNC(=O)[C@H](CC(C)C)NC(=O)[C@@H](N)CC(C)C)C(=O)NCC(=O)N[C@@H](CCCCN)C(=O)N[C@@H](CCC(=O)O)C(=O)N[C@@H](Cc1ccccc1)C(=O)N[C@@H](CCCCN)C(=O)N[C@@H](CCCNC(=N)N)C(=O)N[C@H](C(=O)N[C@H](C(=O)N[C@@H](CCC(N)=O)C(=O)N[C@@H](CCCNC(=N)N)C(=O)N[C@H](C(=O)N[C@@H](CCCCN)C(=O)N[C@@H](CC(=O)O)C(=O)N[C@@H](Cc1ccccc1)C(=O)N[C@@H](CC(C)C)C(=O)N[C@@H](CCCNC(=N)N)C(=O)N[C@@H](CC(N)=O)C(=O)N[C@@H](CC(C)C)C(=O)N[C@H](C(=O)N1CCC[C@H]1C(=O)N[C@@H](CCCNC(=N)N)C(=O)N[C@H](C(=O)N[C@@H](CCC(=O)O)C(=O)N[C@@H](CO)C(=O)O)[C@@H](C)O)C(C)C)[C@@H](C)CC)C(C)C)[C@@H](C)CC [LL-37]
M. tuberculosis [4]
  Killing of M. tuberculosis: 65%
M. smegmatis [5]
  Intracellular killing: 50%
M. smegmatis mc^2155 [1]; 1 × 10^5 CFU per well, 10 mM potassium phosphate buffer pH 7.2 with 0.1% MB7H9, 3 h, 37 °C, CFU plated in triplicate, sigmoidal fit
  EC50: 0.27 µg/mL
M. smegmatis mc^2155 [1]; [12]
  Fold vs. Rifampicin: 2.65
M. smegmatis mc^2155 [1]; [14]
  EC50: 60 nM
M. smegmatis [6]; 72 h
  MIC Alone: 31.3 µg/mL
M. smegmatis [6]; [15]
  FIC (peptide): 0.12
M. smegmatis [6]; in combination with rifampicin
  FIC (peptide): 0.12
M. smegmatis [6]; [16]
  FICI: 0.37
M. smegmatis membrane; DiSC3(5) 50 μg/mL, within 1 min, peptide 50, 25, 5 and 0.5 μg/mL, phosphate buffer pH 7.2, n = 6, Figure 1
  Membrane depolarization: > 70%
M. smegmatis membrane; DiSC3(5), p < 0.001
  Lowest concentration that depolarizes the M. smegmatis membrane: ≤ 0.5 µg/mL
M. smegmatis [7]
  Extent of permeabilization (ethidium bromide uptake): very efficient
M. smegmatis [2]; [13]
  Fold vs. Rifampicin (μM): 0.85
M. tuberculosis [8]
  MIC against M. tuberculosis: 5 µg/mL (≈ 1.11 µM)

## CC[C@H](C)CCCCC(=O)N[C@@H](CCN)C(=O)N[C@H](C(=O)N[C@@H](CCN)C(=O)N[C@H]1CCNC(=O)[C@H]([C@@H](C)O)NC(=O)[C@H](CCN)NC(=O)[C@H](CCN)NC(=O)[C@H](CC(C)C)NC(=O)[C@@H](Cc2ccccc2)NC(=O)[C@H](CCN)NC1=O)[C@@H](C)O [Polymyxin B] (X1-[Dab]T[Dab][Dab][Dab][dF]L[Dab][Dab]T; lactam 4-C (inferred); N-terminus assumed)
M. smegmatis mc^2155 [1]
  Fold vs. Rifampicin: 1.65
M. smegmatis mc^2155 [1]; mc^2155, 3 h
  EC50: 96 nM
M. smegmatis [6]; 72 h
  MIC Alone: 7.8 µg/mL
M. smegmatis [2]
  Fold vs. Rifampicin (μM): 1.26
  MIC: 5.99 µM (≈ 7.21 µg/mL)

## CO[C@H]1/C=C/O[C@@]2(C)Oc3c(C)c(O)c4c(O)c(c(/C=N/N5CCN(C)CC5)c(O)c4c3C2=O)NC(=O)/C(C)=C\C=C\[C@H](C)[C@H](O)[C@@H](C)[C@@H](O)[C@@H](C)[C@H](OC(C)=O)[C@@H]1C [Rifampicin]
M. smegmatis mc^2155 [1]; [12]
  Fold vs. Rifampicin: 1.0
M. smegmatis [9]
  MIC: 3.9 µg/mL and 4.73 µM
M. smegmatis [6]; in combination with ATRA-1A, 72 h
  MIC Combined (antibiotic): 1.95 µg/mL
M. smegmatis [6]; in combination with LL-37, 72 h
  MIC Combined (antibiotic): 0.97 µg/mL
M. smegmatis [6]; in combination with hBD3-Pep4, 72 h
  MIC Combined (antibiotic): 1.95 µg/mL
M. smegmatis [6]; in combination with mCRAMP, 72 h
  MIC Combined (antibiotic): 0.97 µg/mL
M. smegmatis [6]; in combination with ATRA-1A
  FIC (antibiotic): 0.5
M. smegmatis [6]; in combination with LL-37
  FIC (antibiotic): 0.25
M. smegmatis [6]; in combination with hBD3-Pep4
  FIC (antibiotic): 0.5
M. smegmatis [6]; in combination with mCRAMP
  FIC (antibiotic): 0.25
M. smegmatis [2]; [13]
  Fold vs. Rifampicin (μM): 1
M. smegmatis mc^2155 [3]
  EC50: 159 nM
M. smegmatis mc^2155 [3]; pH 7.2
  EC50: 0.13 µg/mL
M. smegmatis [10]
  MIC: 3.9 µg/mL (≈ 4.74 µM)

## GLLRKGGEKIGEKLKKIGQKIKNFFQKLVPQPEQ [mCRAMP]
M. smegmatis mc^2155 [1]; mc^2155, 3 h
  EC50: 44 nM
[11]
  Hemolytic activity: no hemolytic activity
M. smegmatis [2]
  MIC: 4.02 µM

## KRAKKFFKKLK-NH2 [ATRA-1A]
M. smegmatis mc^2155 [1]; [14]
  EC50: 35 nM
[11]; compared to PBS (pH 7)
  Hemolysis: did not elicit statistically significant hemolysis
M. smegmatis [6]; [15]
  FIC (peptide): 0.12
M. smegmatis [6]; [16]
  FICI: 0.37
M. smegmatis [6]; peptide combined with rifampicin
  FICI: 0.56

## RGRRSSRRKK-NH2 [hBD3-Pep4]
M. smegmatis mc^2155 [1]; mc^2155, 3 h
  EC50: 287 nM
M. smegmatis [2]
  MIC: 48.65 µM
